Patent US9314453B2, “Tetrahydropyridoethers for treatment of AMD” (KATAIRO GmbH, priority 2008, dated 2016)
One block for each compound: values may come before it.

Assays:
[1] = system: retinal pigment epithelium; assay: Transmission electron microscopy of RPE and photoreceptors after 52 weeks oral treatment; assay type: in vivo, Cynomolgus monkey
Method: In the present example the effect of Soraprazan on pigmentation of the retinal pigment epithelium in the Cynomolgus monkey (4 years of age) after oral application of 24 mg/kg/day for 52 weeks is shown.
Right eyes from the following animals were subjected to transmission electron microscopy:
Right eyes were removed carefully. A circular slit was cut at the limbus in order to immerse the inner eye with the fixation fluid (5% Glutaraldehyd in […] Cacodylat buffer). From these eyes, specimens ([…] in diameter) from the macula and from the mid-area were cut out, were postfixed in OsO4, treated with uranylacetate, dehydrated and embedded in Epon resin.
Semithin sections (0.7 μm) were prepared from Epon resin blocks. They were stained with toluidin blue and evaluated under a light microscope. Subsequently, ultrathin sections (50 nm) were cut from Epon resin blocks, contrasted and evaluated in a transmission electron microscope.
The number of lipofuscin granules that were smaller than 0.4 μm in diameter was counted in the cytoplasm of ultrathin sections of RPE cells from untreated and treated monkeys. In addition the same counts were performed in macrophages located between RPE and Bruch's membrane of treated monkeys. The results were 4.9±0.6/50 μm^2, 0.6±0.2/50 μm^2; […]. Lipofuscin granules larger than 1 μm in diameter were absent in RPE cells of treated animals. In contrast many of them were present in RPE cells of untreated monkeys.

RPE = assay: Counting of fluorescent lipofuscin particles in RPE after intravitreal injection in Wistar rats; assay type: in vivo; settings: three weeks after one single intravitreal injection, 50 μg/ml or 0.25 mM in the vitreous
Method: (§1) The effects of lipofuscin in vivo, i.e. in the living eye of experimental rats after an intravitreal injection of the compounds were investigated. Vehicle solution or solutions of either substance 1 or Soraprazan were injected intravitreally in half-year old Wistar rats. The final concentration in the vitreous was the same as in the cell cultures, i.e. 50 μg/ml or 0.25 mM. In order to avoid mutual interactions between the two eyes of an animal, both eyes of an animal were treated the same way, with three animals (i.e. six eyes) per group.
(§2) Two kinds of evaluation were performed in these animals—electroretinography (ERG) for functional testing, and counting of lipofuscin particles to check whether the administration of the compounds leads to a decrease of lipofuscin contents in the RPE.
The eyes were isolated after three weeks, fixed in formalin and embedded in paraffin. Paraffin sections were made, and digital fluorescence images were evaluated. The number of fluorescent lipofuscin particles per 50 μm RPE layer length was counted. The results are shown in the diagram (FIG. 21).

[2] = system: Heavily pigmented human donor RPE cells; assay: Electron microscopy / semithin sections of heavily pigmented human donor RPE cells, degradational clusters; assay type: cell-based; settings: 28 days
Method: Heavily pigmented human donor RPE cells (passage)) were treated with 50 μg/ml substance 1 or 30 μg/ml Soraprazan and cultured for 28 days. Cells without treatment were used as controls. Cells were fixed for electron microscopy in 2% glutaraldehyde and embedded in EPON. Semithin and ultrathin sections were cut.
In the semithin sections, the clusters could be observed as well. Here, the pigmented cells bearing one or more clusters were counted. Degradational clusters were detected in 90.5%+/−21.3 of cells treated with substance 1 and in 80.1%+/−22.6 of cells treated with Soraprazan, but only in 16.8%+/−21.6 of untreated cells (p<0.0001).

RPE cells [3] = assay: 52-week oral study in the Cynomolgus monkey, conventional histopathology; assay type: in vivo
Method: Soraprazan was administrated in oral application of 6, 12 and 24 mg/kg/day for 52 weeks in the Cynomolgus monkey.
Some monkeys from the control and the high-dose group were subjected to a recovery period of 3 months.
Two of these 3 monkeys had depigmentation of RPE cells although the photoreceptors facing the depigmented RPE stayed healthy. These RPE cells had released melanin as well as lipofuscin granules to secondary cells that had migrated between Bruch's membrane and the RPE cell layer or into the subretinal space.

RPE cells [4] = assay: Fluorescence microscopy of lipofuscin granules in RPE sections of treated monkeys; assay type: in vivo, Cynomolgus monkey
Source text: Section was illuminated under the fluorescence microscope with 360 nm wavelength light. Lipofuscin granules were detected by the emission of gold-yellow light with […] wavelength. […] Macrophages between the RPE and Bruch's membrane, however, contained many lipofuscin granules. The majority of these granules were smaller than those in RPE cells of untreated animals.

[5] = system: photoreceptors and post-receptoral systems; assay: Electroretinography (ERG) after intravitreal injection in Wistar rats; assay type: in vivo; settings: for ERG a-wave and b-wave amplitudes after injection, compared with vehicle: intravitreal, 50 μg/ml or 0.25 mM in the vitreous, highest light intensity, initial decrease; for ERG a-wave and b-wave amplitudes, recovery: three weeks after the intravitreal injection
Method: as §1, §2
Before the injection, electroretinograms were measured to obtain base line values. Additional ERG measurements were performed one, two and three weeks after the intravitreal injections. Some results are shown in the diagrams below.

[6] = system: Retinal pigment epithelium (RPE) cells from human donor eyes; assay: Lipofuscin content and pigmentation in cultured RPE cells from human donor eyes (digital image analysis); assay type: cell-based; settings: for Lipofuscin and pigment content in cultured RPE cells: 50 μg/ml or 0.25 mM, permanent exposure, versus control; for Lipofuscin and melanin in cultured human RPE cells: after 26 days of treatment (FIG. 18)
Method: Retinal pigment epithelium (RPE) cells from human donor eyes were cultured and exposed permanently to either vehicle solution, solution of Soraprazan or solution of 7R,8R,9R)-2,3-Dimethyl-7-ethoxy-8-hydroxy-9-phenyl-7,8,9,10-tetrahydro-imidazo-[1,2-h][1,7]-naphthyridin (called substance 1) at a concentration of 50 μg/ml or 0.25 mM. At several time points, digital images were taken and analysed with respect to the portion of lipofuscin and pigmentation in general. As the results did strongly depend on the random choice of microscopic field and the variations of the data were very high, the values of four consecutive days of five independent experiments were averaged. The results for the lipofuscin content in the RPE cells are shown in the diagram (FIG. 18).
Retinal pigment epithelium (RPE) cells from human donor eyes were cultured and exposed permanently to either vehicle solution, solution of Soraprazan or solution of substance 1 (concentration 50 μg/ml or 0.25 mM). At several time points, digital images were taken and analysed with respect to the portion of lipofuscin and pigmentation in general.

[7] = system: RPE cell cultures from human donor eyes; assay: Phagocytosis of fluorescent latex beads by RPE cell cultures; assay type: cell-based
Method: Then the treatment-dependent ability of the cells to phagocytose, which is a crucial function of the RPE, was checked. For this purpose, RPE cell cultures from human donor eyes were exposed to vehicle or substance 1. After three weeks, fluorescent latex beads were added to the cell cultures for four hours. The cells were then washed to remove non-phagocytosed beads and fixed. Fluorescent images of the cells were taken and analysed for the contents of lipofuscin and the number of phagocytosed beads. The results shown in FIG. 19 are presented as the relationship between lipofuscin content and phagocytosed bead number in both controls and substance-1-treated cells.

Compound: CCO[C@H]1c2ccn3c(C)c(C)nc3c2N[C@H](c2ccccc2)[C@H]1O [Example 4, (7S,8R,9R)-2,3-Dimethyl-7-ethoxy-8-hydroxy-9-phenyl-7,8,9,10-tetrahydro-imidazo[1,2-h][1,7]naphthyridine]
- melting point: 135 to 137 °C

Compound: Cc1nc2c3c(ccn2c1C)[C@H](OC(C)C)[C@H](O)[C@@H](c1ccccc1)N3 [Example 7, (7S,8R,9R)-2,3-Dimethyl-8-hydroxy-9-phenyl-7-(2-propoxy)-7,8,9,10-tetrahydro-imidazo[1,2-h][1,7]naphthyridine]
- melting point: 168 to 169 °C

Compound: CO[C@@H]1[C@@H](c2ccccc2)Nc2c(ccn3c(C)c(C)nc23)[C@H]1OC [Example 8, (7R,8R,9R)-2,3-Dimethyl-7,8-dimethoxy-9-phenyl-7,8,9,10-tetrahydro-imidazo[1,2-h][1,7]naphthyridine]
- melting point: 155 to 156 °C

Compound: COCCO[C@@H]1c2ccn3c(C)c(C)nc3c2N[C@H](c2ccccc2)[C@H]1O [Soraprazan, (7R,8R,9R)-2,3-Dimethyl-8-hydroxy-7-(2-methoxyethoxy)-9-phenyl-7,8,9,10-tetrahydro-imidazo[1,2-h][1,7]naphthyridine]
- Morphological changes in the neuroretina at the ultrastructural level ([1]; 24 mg/kg/day for 52 weeks): No morphological changes
- Monkeys with loss of melanin and lipofuscin in RPE cells ([1]; oral 24 mg/kg/day, 52 weeks): 3 out of 7
- Ultrastructural alterations in the retina compared to untreated monkeys ([1]; oral 24 mg/kg/day, 52 weeks): could not be detected
- Lipofuscin granules larger than 1 μm in diameter in RPE cells ([1]; treated animals): absent
- Number of lipofuscin granules smaller than 0.4 μm in diameter in the cytoplasm of RPE cells ([1]; ultrathin sections, treated monkeys): 0.6±0.2 /50 μm^2
- Number of fluorescent lipofuscin particles per 50 μm RPE layer length (RPE): 15.0±8.3 particles per 50 μm
- Pigmented cells bearing degradational clusters ([2]; 30 μg/ml): 80.1%+/−22.6
- Conventional histopathology (RPE cells [3]; oral 6 mg/kg/day for 52 weeks): no alterations
- Conventional histopathology (RPE cells [3]; oral 12 mg/kg/day for 52 weeks): no alterations
- Monkeys showing migration of individual macrophages beneath the RPE and/or into the subretinal space (RPE cells [3]; oral 24 mg/kg/day for 52 weeks): Three out of 12
- Lipofuscin granules in depigmented RPE cells (fluorescence, 360 nm illumination) (RPE cells [4]): completely or almost completely absent
- ERG a-wave and b-wave amplitudes after injection, compared with vehicle [5]: decrease of the amplitudes is even more pronounced
- ERG a-wave and b-wave amplitudes, recovery [5]: remained significantly lower than the base line
- Lipofuscin and pigment content in cultured RPE cells [6]: decreased compared to the control
- Lipofuscin and melanin in cultured human RPE cells [6]: reduced

Compound: CCO[C@@H]1c2ccn3c(C)c(C)nc3c2N[C@H](c2ccccc2)[C@H]1O [substance 1]
- Number of fluorescent lipofuscin particles per 50 μm RPE layer length (RPE): 9.8±6.1 particles per 50 μm
- Pigmented cells bearing degradational clusters ([2]; 50 μg/ml): 90.5%+/−21.3
- Lipofuscin content of RPE cells ([7]; after three weeks exposure, versus control (FIG. 19)): much more lipofuscin under control conditions than under the influence of substance 1
- Number of phagocytosed latex beads ([7]; three weeks exposure, beads for four hours, versus untreated cells (FIG. 19)): phagocytosed more beads than untreated cells
- ERG a-wave and b-wave amplitudes after injection, compared with vehicle [5]: decrease of the amplitudes is even more pronounced
- ERG a-wave and b-wave amplitudes, recovery [5]: recover almost completely
- Lipofuscin and pigment content in cultured RPE cells [6]: even more clear and significant decrease
- Lipofuscin and melanin in cultured human RPE cells [6]: reduced

The remaining lines, values ahead:

- melting point: 161 to 162 °C
Compound: CO[C@H]1c2ccn3c(C)c(C)nc3c2N[C@@H](c2ccccc2)[C@@H]1O [Example 1B, (7S,8S,9S)-2,3-Dimethyl-8-hydroxy-7-methoxy-9-phenyl-7,8,9,10-tetrahydro-imidazo[1,2-h][1,7]naphthyridine]

- melting point: 108 to 110 °C
Compound: CO[C@H]1c2ccn3c(C)c(C)nc3c2N[C@H](c2ccccc2)[C@H]1O [Example 2A, (7S,8R,9R)-2,3-Dimethyl-8-hydroxy-7-methoxy-9-phenyl-7,8,9,10-tetrahydro-imidazo[1,2-h][1,7]naphthyridine]

- melting point: 171 to 172 °C
Compound: CO[C@@H]1c2ccn3c(C)c(C)nc3c2N[C@@H](c2ccccc2)[C@@H]1O [Example 2B, (7R,8S,9S)-2,3-Dimethyl-8-hydroxy-7-methoxy-9-phenyl-7,8,9,10-tetrahydro-imidazo[1,2-h][1,7]naphthyridine]
